The target of assay [1] is ITK (Homo sapiens (Human), UniProt Q08881). As to the kind of experiment: ITK inhibitor binding potency (LanthaScreen competitive binding assay). The conditions noted are these: read-out: ITK Inh. IC50. The source says: The ability of candidate compounds to interact with ITK is quantitated by a competitive binding assay using the LanthaScreen technology developed by Life Technologies. This assay is based on the binding of a proprietary, Alexa Fluor® 647-labeled, ATP-competitive kinase inhibitor (kinase tracer-236) to the ITK expression construct in the presence of a Europium-conjugated antibody, resulting in a FRET (fluorescence resonance energy transfer) signal. Displacement of the kinase tracer by compound results in a lower emission ratio upon excitation of the Europium chelate. Candidate compounds are designed as potential irreversible inhibitors of ITK, capable of ligating to an active site cysteine residue resulting in time dependent covalent binding. The time dependent nature of irreversible inhibition is investigated by performing the binding assay with and without a pre-incubation of compound and ITK. […] The inhibitory potency of candidate compounds is measured in 20 mM HEPES pH 7.5, 10 mM MgCl2, 0.01% BSA, 0.0005% Tween-20, and 2% DMSO in the presence of 10 nM ITK, 2 nM Eu-anti-GST antibody, and 50 nM kinase tracer-236 using a 384-well plate format. Background signal is defined in the absence of ITK and uninhibited signal is defined in the presence of vehicle (2% DMSO) alone. Compounds were evaluated in an 11 point dose-response ranging from 20 uM to 0.34 nM. The binding assays are performed under two preincubation conditions to evaluate time dependence of inhibition. For the pre-incubation assay, ITK and Eu-anti-GST antibody are pre-incubated with compound or vehicle for two hours prior to the addition of kinase tracer. The non-preincubated assay is run under conditions where ITK and Eu-anti-GST antibody are added to a mixture of compound and kinase tracer. IC50 values of compounds are determined using a 4 parameter logistical fit of emission ratio as a function of the concentration of compound.

Assay [2] relates to ITK phosphorylation of its substrate, PLCγ1, at Y783. As to the kind of experiment: ITK target modulation assay (PLCγ1 Y783 phosphorylation, anti-CD3 stimulated Jurkat T cells). Type of assay: cell-based. The conditions noted are these: Homo sapiens, Jurkat, anti-CD3 Dynabeads stimulation, read-out: PLC-γ Inh. IC50. Here is the method:
Target modulation was based upon the ability of a compound to inhibit ITK phosphorylation of its substrate, PLCγ1, at Y783. Human Jurkat T cells (ATCC TIB-152) were plated in V-bottom 96 well plates at 400,000 cells/well in 80 μL medium (RPMI1640 with 10% heat inactivated serum and 55 μM 2-mercaptoethanol and supplemented with glutamine/penicillin/streptomycin). Compounds were added as 10 μL of 10× working stock solutions in medium with 1% DMSO (or medium with 1% DMSO for controls) and placed in a 37° C. incubator with gentle shaking for 1 hour. Stimulation was carried out using anti-CD3 Dynabeads (Invitrogen catalog #1151D) to activate the T cell receptor and mimic antigen presenting cells. Beads were washed and resuspended in medium at 1.84×10^8 beads/ml. Beads were added rapidly to all compound containing and stimulation only wells at 10 μL/well (bead:cell=2:1) with gentle mixing of the bead source between each addition. Wells designated ‘unstimulated’ received 10 μL of media only. The plate was immediately sealed with a plate seal and cells pelleted at 400× g for 4 minutes. Media was removed using a multichannel aspirator, 25 μL of cold hypotonic lysis buffer (VWR M334-100 ml) plus 1×HALT Protease Inhibitor Cocktail (ThermoFisher #78437), 1× Phosphatase Inhibitor Cocktail 2 (Sigma Aldrich #P5726), 1× Phosphatase Inhibitor Cocktail 3 (Sigma Aldrich #P0044) and 2 mM PMSF was added per well. Cells were incubated on ice for 30 minutes to swell the cells then lysed by pipetting 20 times using a multichannel pipet. The plates were then resealed and centrifuged for 5 minutes at 400× g to pellet the cellular debris. Two μL of the soluble component of each sample was spotted onto nitrocellulose and allowed to dry for 30 minutes. Nitrocellulose was wet in 1× Tris Buffer Saline (20 mM Tris pH7.5, 150 mM NaCl) then blocked in LiCOR Odyssey Blocking Buffer (TBS) (LiCOR #927-50000) for 1 hour at room temperature with rocking. Following blocking, nitrocellulose was incubated in LiCOR Odyssey Blocking Buffer (TBS) plus 0.2% Tween20 plus anti-phospho-PLCγ1 (Y783) antibody (CST #2821S) at 1:1000 and anti-PLCγ1 (Abcam #41433) at 1:5000 with gentle rocking overnight at 4° C. Nitrocellulose was then washed four times for 5 minutes each with TBS plus 0.1% Tween20 (TBST) then incubated in LiCOR Odyssey Blocking Buffer (TBS) plus 0.2% Tween20 plus secondary antibodies IRDye 800CW (LiCOR 926-32211) and IRDye 680RD (LiCOR 926-68070) both at 1:15,000 with gentle rocking at room temperature in the dark for 1 hour. Nitrocellulose was then washed four times for 5 minutes each with TBST at room temperature in the dark. A final rinse with TBS was done prior to imaging and quantifying using the LiCOR Odyssey Imager and software respectively.

The test system of assay [3] is JAK1/3 phosphorylation of its substrate, STAT5, at Y694. As to the kind of experiment: JAK1/3 target modulation assay (IL-2 stimulated STAT5 Y694 phosphorylation in PBMC). Type of assay: cell-based. The following applies: Homo sapiens, PBMC, Primary human peripheral blood mononuclear cells, IL-2 25 ng/mL; read-out: IL2-STAT5 Inh. IC50. Here is the method: Target modulation was based upon the ability of a compound to inhibit JAK1/3 phosphorylation of its substrate, STAT5, at Y694. Primary human peripheral blood mononuclear cells were plated in V-bottom 96 well plates at 200,000 cells/well in 120 μL medium (RPMI-1640 with 10% fetal bovine serum, 10 mM HEPES buffer, 12.2 mM 2-mercaptoethanol, and supplemented with glutamine/penicillin/streptomycin). Compounds were added as 15 μL of 10× working stock solutions in medium with 1% DMSO (or medium with 1% DMSO for controls) and placed in a 37° C. incubator with gentle shaking for 1 hour. Stimulation was carried out using recombinant human IL-2 (R&D Systems #202-IL-050) to activate JAK1/3. IL-2 stock solution was diluted in media to 250 ng/mL and was added rapidly to all compound containing and stimulation only wells at 15 μL/well (final concentration=25 ng/mL). Wells designated ‘unstimulated’ received 15 μL of media only. The plate was placed back in a 37° C. incubator with gentle shaking for 5 minutes. After stimulation, the plates were immediately sealed with a plate seal, and cells pelleted at 400× g for 5 minutes. Media was removed using a multichannel aspirator, and 75 μL of cold Tris lysis buffer (MSD #R60TX-3) plus 1× Protease Inhibitor Solution (MSD #R70AA-1), 1× Phosphatase Inhibitor I (MSD #R70AA-1), and 1× Phosphatase Inhibitor II (MSD #R70AA-1) was added per well. Cells were incubated at 4° C. with gentle shaking for at least 30 minutes to allow for complete lysis. The plates were removed from 4° C., and 25 μL of lysate from each well was added to the corresponding well on the MSD plate. Samples were analyzed by either an MSD multiplex kit for Phospho-STAT5a,b/Total-STAT5a,b (MSD #K15163D) or an MSD single-plex kit for Phospho-STAT5a,b (MSD #K150IGD). The protocols for the respective kits were followed, and the plates were read on the MSD SECTOR S 600.

The target of assay [4] is JAK3 (Homo sapiens (Human), UniProt P52333). Description: JAK3 enzyme activity assay (Caliper mobility shift). The assay is classed as biochemical. The following applies: ATP at Km level; read-out: JAK3 Inh. IC50. The source says: The ability of candidate compounds to interact with JAK3 is quantitated by a mobility shift assay using an LC3000 instrument developed by Caliper Life Sciences. This assay is based on mobility shift electrophoresis, in which fluorescently labelled product and fluorescently labelled substrate peaks are separated and detected independently. JAK3 product/substrate separation is obtained using the following instrument settings: Pressure=−1.4 psi, Downstream voltage=−2550V and Upstream voltage=−800V. The inhibitory potency of candidate compounds of JAK3 is measured in 20 mM HEPES pH 7.5, 10 mM MgCl2, 0.01% BSA, 0.0005% Tween-20, and 2% DMSO in the presence of 2.5 nM JAK3 (Life Technologies Catalog #PV3855), […] (Anaspec Catalog #AS-64106) and […] (Km level) using a 384-well plate format. Background signal is defined in the absence of enzyme and uninhibited signal is defined in the presence of vehicle (2% DMSO) alone. Compounds were evaluated in an 11 point dose-response ranging from […] to 0.34 nM. IC50 values of compounds are determined using a 4 parameter logistical fit of emission ratio as a function of the concentration of compound.
Sequence of JAK3 (P52333 781-1124): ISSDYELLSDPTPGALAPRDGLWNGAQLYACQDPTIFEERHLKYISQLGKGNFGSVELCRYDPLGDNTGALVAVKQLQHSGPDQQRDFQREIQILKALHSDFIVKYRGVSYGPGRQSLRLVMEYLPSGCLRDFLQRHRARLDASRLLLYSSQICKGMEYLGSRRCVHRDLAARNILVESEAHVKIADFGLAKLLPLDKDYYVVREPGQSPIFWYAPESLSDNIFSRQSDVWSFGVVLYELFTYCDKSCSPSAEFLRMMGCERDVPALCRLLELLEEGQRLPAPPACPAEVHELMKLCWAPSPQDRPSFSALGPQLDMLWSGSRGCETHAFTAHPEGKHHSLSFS

Sequence of ITK (Q08881 whole entry): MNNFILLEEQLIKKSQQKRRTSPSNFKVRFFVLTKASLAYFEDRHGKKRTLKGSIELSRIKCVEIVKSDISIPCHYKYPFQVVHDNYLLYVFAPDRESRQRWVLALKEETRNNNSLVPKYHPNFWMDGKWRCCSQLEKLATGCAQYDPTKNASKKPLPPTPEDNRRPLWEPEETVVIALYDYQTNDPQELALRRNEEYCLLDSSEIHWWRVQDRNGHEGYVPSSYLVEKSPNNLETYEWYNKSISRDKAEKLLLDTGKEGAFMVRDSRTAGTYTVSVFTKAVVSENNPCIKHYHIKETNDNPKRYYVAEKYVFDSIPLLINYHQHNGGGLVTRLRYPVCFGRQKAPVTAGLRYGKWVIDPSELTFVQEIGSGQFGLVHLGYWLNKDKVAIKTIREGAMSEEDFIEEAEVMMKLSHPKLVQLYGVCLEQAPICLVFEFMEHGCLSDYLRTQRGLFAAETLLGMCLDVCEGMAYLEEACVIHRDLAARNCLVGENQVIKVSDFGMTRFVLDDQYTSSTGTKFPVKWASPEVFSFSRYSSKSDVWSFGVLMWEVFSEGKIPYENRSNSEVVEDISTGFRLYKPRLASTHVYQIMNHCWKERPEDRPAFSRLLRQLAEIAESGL

In the case of `C=CC(=O)N1C[C@H](Nc2ncnc3[nH]cc([C@@H]4C(C)(C)C4(F)F)c23)CC[C@@H]1C` (single isomer, unassigned) [Example 54], the IC50 was at most 10 nM in assay [1], 100 to 1000 nM in assay [2], 100 to 1000 nM in assay [3] and at most 10 nM in assay [4].

For `C=CC(=O)N1CCC(Nc2cnc3[nH]cc(C(COC)C4CC4)c3c2)CC1` (stereo not drawn) [Example 101, 1-(4-((3-(1-cyclopropyl-2-methoxyethyl)-1H-pyrrolo[2,3-b]pyridin-5-yl)amino)piperidin-1-yl)prop-2-en-1-one], the IC50 is above 100 nM in assay [1], above 1000 nM in assay [2], above 1000 nM in assay [3] and above 100 nM in assay [4].

For `C=CC(=O)N1CCC[C@@H](Nc2ncnc3[nH]cc([C@]45CCC[C@H]4C5(F)F)c23)C1` (single isomer, unassigned) [Example 80], the IC50 in assay [1] is 10 to 100 nM; in assay [2], above 1000 nM; in assay [3], above 1000 nM; in assay [4], at most 10 nM.

As for `C=CC(=O)N1C[C@H](Nc2ncnc3[nH]cc([C@@H]4[C@@H](C)C4(F)F)c23)CC[C@@H]1C` (single isomer, unassigned) [Example 52], the IC50 in assay [1] is at most 10 nM; in assay [2], 100 to 1000 nM; in assay [3], 100 to 1000 nM; in assay [4], at most 10 nM.

Take `C=CC(=O)N1C[C@H](Nc2ncnc3[nH]cc([C@@H]4CC4(F)F)c23)CC[C@@H]1C` (single isomer, unassigned) [Example 48]: the IC50 is at most 10 nM in assay [1], at most 100 nM in assay [2], at most 100 nM in assay [3] and at most 10 nM in assay [4].

For the compound `C=CC(=O)N1CCC[C@@H](Nc2ncnc3[nH]cc(C(=O)C4CC4)c23)C1` [Example 5, (R)-1-(3-((5-(cyclopropanecarbonyl)-7H-pyrrolo[2,3-d]pyrimidin-4-yl)amino)piperidin-1-yl)prop-2-en-1-one], the IC50 in assay [1] is at most 10 nM; in assay [2], 100 to 1000 nM; in assay [3], above 1000 nM; in assay [4], 10 to 100 nM.

For `C=CC(=O)N1C[C@H](Nc2ccnc3[nH]cc(C(=O)C4CC4)c23)CC[C@@H]1C` [Example 34, 1-((2S,5R)-5-((3-(cyclopropanecarbonyl)-1H-pyrrolo[2,3-b]pyridin-4-yl)amino)-2-methylpiperidin-1-yl)prop-2-en-1-one], the IC50 in assay [1] is at most 10 nM; in assay [2], at most 100 nM; in assay [3] it was 100 to 1000 nM; in assay [4] it was at most 10 nM.

As for `C/C=C/C(=O)N1C[C@H](Nc2ncnc3[nH]cc([C@@H]4CC4(F)F)c23)CC[C@@H]1C` (single isomer, unassigned) [Example 58], the IC50 was above 100 nM in assay [1], 100 to 1000 nM in assay [2], above 1000 nM in assay [3] and above 100 nM in assay [4].

Consider `C=CC(=O)N1CCC[C@@H](Nc2ncnc3[nH]cc(C(C)C4CC4)c23)C1` (stereo partly drawn) [Example 21, 1-((3R)-3-((5-(1-cyclopropylethyl)-7H-pyrrolo[2,3-d]pyrimidin-4-yl)amino)piperidin-1-yl)prop-2-en-1-one], for which the IC50 in assay [1] is above 100 nM; in assay [2], above 1000 nM; in assay [3], above 1000 nM; in assay [4] it was above 100 nM.

Consider `C=CC(=O)N1CCC[C@@H](Nc2ncnc3[nH]cc(C(=O)[C@H]4CCOC4)c23)C1` (single isomer, unassigned) [Example 11], for which the IC50 in assay [1] was 10 to 100 nM; in assay [2], above 1000 nM; in assay [3] it was above 1000 nM; in assay [4], above 100 nM.

Regarding `C=CC(=O)N1CCC[C@@H](Nc2ncnc3[nH]cc(C4=CCCC4)c23)C1` [Example 29, (R)-1-(3-((5-(cyclopent-1-en-1-yl)-7H-pyrrolo[2,3-d]pyrimidin-4-yl)amino)piperidin-1-yl)prop-2-en-1-one], the IC50 in assay [1] is at most 10 nM; in assay [2] it was 100 to 1000 nM; in assay [3], 100 to 1000 nM; in assay [4] it was at most 10 nM.

`C=CC(=O)N1CC(Nc2ncnc3[nH]cc(CC4CC4)c23)CCC1CC` (stereo not drawn) [Example 38, 1-(5-((5-(cyclopropylmethyl)-7H-pyrrolo[2,3-d]pyrimidin-4-yl)amino)-2-ethylpiperidin-1-yl)prop-2-en-1-one]: the IC50 in assay [1] was at most 10 nM; in assay [2] it was 100 to 1000 nM; in assay [3] it was 100 to 1000 nM; in assay [4], at most 10 nM.
